From paper PMC12344719 (Journal of Chemical Information and Modeling, 2025)
Like-named read-outs stand apart in the source and are kept apart here.

Tests used:
SARS-CoV-2 Mpro = settings: cited from earlier work
Vero cells [1] = settings: African green monkey (Cercopithecus aethiops)
in vitro = settings: African green monkey (Cercopithecus aethiops)
SARS-CoV-2 [2] = type: cell-based
SARS-CoV-2 [3] = assay: microbe, parasite or virus in culture; type: cell-based
Vero cells [4] = tested on: Vero cells; parameters: method as in Yang et al.; settings: 72 h condition without hypoxia, ref Yang et al.; cited from earlier work
[5] = parameters: method as in Liu et al.; settings: ref Liu et al.; cited from earlier work
[6] = toxicological studies in animals; cited from earlier work

For O=C[C@H](C[C@@H]1CCNC1=O)NC(=O)[C@H](Cc1cccc(F)c1)NC(=O)c1cc2ccccc2[nH]1 [11b], which IC50 (SARS-CoV-2 Mpro) is on record?
The IC50 was 0.04 µM.

For COc1ccccc1OCCCOc1ccc([N+](=O)[O-])cc1Cl [MolPort-002-201-288], which CC20 (Vero cells [1]) is on record?
Its CC20 is 3.031 µM.

And the CC50 (in vitro)?
Its CC50 is 20.6 µM.

What does the source list for CCOc1ccc2nc(C(=O)CCC(=O)OC(CCl)CCl)sc2c1 [MolPort-004-953-083]?
CC20 (Vero cells [1]; 72 h): 29.30 µM; CC50 at 72 h (in vitro): 45.5 µM

For Cc1cccc(C)c1NC(=O)CCCSCc1cccc(S(=O)(=O)N(C)C)c1 [MolPort-005-766-143], which CC20 (Vero cells [1]; 72 h) is on record?
Its CC20 is 3.532 µM.

And the CC50 at 72 h (in vitro)?
The CC50 at 72 h was 15.7 µM.

Which results are given for C=CCNC(=O)c1csc(-c2ccc(OCCC)cc2F)n1 [MolPort-006-606-981]?
CC20 (Vero cells [1]): 3.964 µM; CC50 (in vitro): 19.4 µM

For CN(CCCCCc1cc(-c2cccc(F)c2)n[nH]1)C(=O)C(C)(C)C [MolPort-009-093-282], which CC20 (Vero cells [1]) is on record?
The CC20 was 9.418 µM.

And the CC50 (in vitro)?
Its CC50 is 47.1 µM.

Which “log reduction (viral titer)” value (SARS-CoV-2 [2]) does the source give for CCS(=O)(=O)N(C)c1ccc2sc(C(=O)NCCC3=CCCCC3)cc2c1 [MolPort-010-778-422] here?
Its value is 5.6 log.

What about the “SI (selectivity index)” value (SARS-CoV-2 [3]) of the same molecule?
Its value is 569.9.

And the IC50 (SARS-CoV-2 [3]; Severe acute respiratory syndrome coronavirus 2, Vero, 2 h)?
Its IC50 is 0.0089 µM.

And the CC20 (Vero cells [1]; 72 h)?
Its CC20 is 2.258 µM.

What about the CC50 at 72 h (in vitro) of the same molecule?
The CC50 at 72 h was 5.07 µM.

For COc1cccc(SCC(=O)N(Cc2ccccn2)C2CCCCC2)c1 [MolPort-045-920-671], which CC20 (Vero cells [1]; 72 h) is on record?
The CC20 was 2.772 µM.

And the CC50 at 72 h (in vitro)?
The CC50 at 72 h was 16.1 µM.

For CC(=O)c1[nH]c(C)c(C(=O)N(C)CCCOc2cccc(Cl)c2)c1C [MolPort-046-186-743], which CC20 (Vero cells [1]; 72 h) is on record?
The CC20 was 7.583 µM.

And the CC50 at 72 h (in vitro)?
The CC50 at 72 h was 27.6 µM.

For CCN(CC)CCCC(C)Nc1ccnc2cc(Cl)ccc12 (stereo not shown) [chloroquine], which CC50 (Vero cells [4]) is on record?
The CC50 was 92.4 µM.

And the CC50 [5]?
Its CC50 is 273 µM.

Which CC50 (Vero cells [4]) does the source give for CCN(CCO)CCCC(C)Nc1ccnc2cc(Cl)ccc12 (stereo not shown) [hydroxychloroquine] here?
The CC50 was 56.2 µM.

What about the CC50 [5] of the same molecule?
The CC50 was 250 µM.

What about the “less toxic than chloroquine” value [6] of the same molecule?
Its value is “approximately 40%”.
